Source: paper PMC7136079 (Translational and Clinical Pharmacology, 2020)
Read-outs that look alike come from different tables or passages of the source.

Tests used:
[1] = cited from earlier work; for within-subject variability (coefficient of variation) of Cmax: ref unpublished previous study results

Compound | Tmax ([1]; 50 mg) | terminal half-life (t1/2) [1] | time at which maximum concentration (Cmax) was attained [1] | pharmacokinetic dose linearity ([1]; dose range of 50–400 mg) | within-subject variability (coefficient of variation) of Cmax ([1]; fasted state, 2016) | within-subject variability (coefficient of variation) of Cmax ([1]; fed state, 2015) | AUCinf geometric mean ratio (90% CI) (fed state, ratio of the FDC to the loose combination) | time to reach Cmax ([1]; extended-release formulations) | Tmax (fed state (high fat meal), given as loose combination gemigliptin 50 mg + metformin XR 1,000 mg, n = 30, median [minimum–maximum]) | Tmax (human, plasma, oral)
N[C@@H](CC(=O)N1CCc2c(nc(C(F)(F)F)nc2C(F)(F)F)C1)CN1CC(F)(F)CCC1=O [Gemigliptin] | approximately 2 hours | 17.1 h | 2 h | linearity | approximately 23.4% | approximately 20.4% | 0.9940 (0.9691–1.0195) | – | – | –
CN(C)C(=N)N=C(N)N [Metformin] | – | – | – | – | – | – | – | 4 to 8 h | 6.00 [4.00–8.03] h | 6.04 h
